Test results published in ChEMBL document CHEMBL3507680, “University of Dundee, Gates Library screen for HepG2 cell viability”.

Experiment: Human HepG2 cell viability assay in 384 well format
Format: toxicity, cell-based
Set-up: dose 125 nL, time 70.5 hour; concentration not given beside the values
Details: HepG2 cells, read-out: Inhibition

Compound	cytotoxicity at 70.5 h
CCC(=O)Nc1cccc(OCC(=O)N(C)Cc2nc(C)c[nH]2)c1	-4.8%
O=C1CCC(C(=O)NCCOc2cccc(Cl)c2Cl)CN1 (configuration not stated)	-13.1%
Cc1noc(C)c1C(=O)N1CCCC(c2c(C)c(=O)nc3n2CCC3)C1 (configuration not stated)	-9.85%
CC(=O)N1N=C(c2ccco2)OC1C(=O)N(CC(C)C)CC(C)C (configuration not stated)	-1.96%
CN1CCN(C)C(CNC(=O)N(C)Cc2ccc(Cl)c(F)c2)C1 (configuration not stated)	-11.2%
O=C(NCc1ccco1)[C@@H]1CC[C@@H]2[C@@H](CCN2Cc2ccc(F)cc2)O1	-5.82%
O=C1NCC(C(=O)Nc2ncc(Cc3ccccc3)s2)N1 (configuration not stated)	44.7%
CC(C)Oc1ccc(CSc2nnc(CN3CCCC3=O)o2)cc1	-7.62%
CC(C)OC[C@H]1CCC[C@]12CN(C(=O)C1CCOCC1)CCO2	-8.49%
O=C(NC1CCCc2c1[nH]c1ccc(F)cc21)c1n[nH]c2c1CCCC2 (configuration not stated)	27%
Cc1cnn(C2(C(=O)O)CCN(Cc3oc4ccccc4c3C)CC2)c1	-8.33%
O=C(N1CCC(O)(C(F)(F)F)C1)C1(c2cccc(Cl)c2)CC1 (configuration not stated)	-9.29%
O=C(Nc1cccnc1)Nc1cccc(CN2CCC(O)CC2)c1	10.2%
O=C(N1CCOCC1)[C@@]12CCO[C@@H]1CCN(Cc1cccc(F)c1)C2	-8.34%
Cn1cc(C2CCCN2C(=O)c2cnc(C3CC3)s2)cn1 (configuration not stated)	-5%
Cc1ncccc1Oc1nccnc1C1CCN(C(C)C)CC1	-2.72%
CCOC(=O)N(C)CC(=O)NCCc1coc(-c2ccc(C)cc2)n1	-8.2%
Nc1nccc(N2CCCC(CO)(CCOc3ccccc3)C2)n1 (configuration not stated)	8.14%
CC1=N[C@@]2(CC[C@@H]3CN(C(=O)Nc4ccc(F)cc4)C[C@@H]32)C(=O)N1C	-101%
O=C(C1CCCO1)N1CCCn2c(nnc2Cn2ccnc2)C1 (configuration not stated)	-7.67%
O=c1oc2ccccc2n1CCCN1CCCC1c1ccc(O)cc1 (configuration not stated)	-1.72%

Compound	cytotoxicity at 70.5 h
CCCn1nnnc1CSc1nccn1C	-7.23%
Oc1cccc(CN2C[C@H]3CC[C@@H]2CN(Cc2ccncc2)C3)c1	-12.3%
Cc1noc2ncnc(N3CCC(O)(Cn4ccnc4)CC3)c12	4.45%
O=C(NCCNc1cnccn1)N1CCCC(N2CCCC2)C1 (configuration not stated)	3.31%
COCC(=O)N[C@@H]1CN(Cc2c[nH]nc2-c2cccs2)C[C@H]1O	-2.93%
CCCS(=O)(=O)NCC1OCCc2cn(CC3CCOCC3)nc21 (configuration not stated)	30.2%
Cc1nc(C)n(C2CCCN(C(=O)c3cc(C4CC4)on3)C2)n1 (configuration not stated)	1.36%
CCOC(=O)c1n[nH]cc1-c1cncn1CCCn1nc(C)cc1C	-5.33%
CN1CCN(S(C)(=O)=O)c2ccc(F)cc21	-11.1%
CC(C)(NS(C)(=O)=O)C(=O)NCCc1csc2ccccc12	4.98%
Cc1noc(CCCC(=O)N2CCNC(=O)C2)n1	-9.21%
COc1ccc(CN(Cc2ccccn2)Cc2cncn2C)cc1	-1.37%
CN(Cc1ccc(N2CCOCC2)cc1)Cc1noc(C(C)(C)C)n1	7.66%
FC(F)(F)C1CCc2nnc(CNCc3ccsc3)n2C1 (configuration not stated)	-2.38%
CCc1c(C)sc2nc3n(CCN4CCOCC4)nc(SC)n3c(=O)c12	5.28%
CCOc1ccccc1C(C(=O)O)N(C)Cc1nnc(C)o1 (configuration not stated)	-2.69%
Cc1nc(Cn2c(=O)cnc3ccccc32)n(C)n1	-24.2%
COc1c[nH]c(C(=O)N2CCN(c3ccccc3)CC2)cc1=O	-11.3%
COCCN1CC[C@@H]2CN(Cc3nccn3C)C[C@@H]2C1	8.43%
CC(=O)c1ccc(F)cc1-c1cc(NCCO)nc2[nH]ccc12	-0.208%
CNC(=O)c1cccc(CCNc2ccccn2)c1	-0.207%

Compound	cytotoxicity at 70.5 h
NCC1(CN2CCOCC2)CCCCC1	14.2%
CCn1cc(C#N)c(=O)c2cc(Br)ccc21	-13.9%
O=C(Cc1ccc2c(c1)CCO2)N1CCN(c2cnccn2)CC1	23.2%
CC(C)Sc1ncccc1C(=O)NCc1ccoc1	-9.56%
CNc1cc(C2CCCN2S(=O)(=O)c2cccc(F)c2)ccn1 (configuration not stated)	14.1%
N#Cc1cccnc1N1CCCC(CO)(Cc2ccccc2F)C1 (configuration not stated)	-4.89%
CC(=O)NCC(=O)N1CCN(CCN(C)C)c2ncccc2C1	-14.2%
CC(C)c1cc(N2CCC[C@H](N)C2)n2nccc2n1	-4.66%
O=C(c1ccc(F)cc1)N1CCC2(CCCN2CC2CC2)CC1	-14%
Cn1cnc(S(=O)(=O)N2CCCn3cnc(CN4CCCC4)c3C2)c1	-3.74%
CC(C)C(=O)N1CCCC([C@@H]2C[C@H](C(F)F)n3ncnc3N2)C1 (some centres not stated)	-3.96%
COCCn1c(-c2cccc(OC)c2)cnc1NC(=O)NCC(C)C	-18.3%
O=C(O)c1cc2c(c(S(=O)(=O)N(CCCO)c3ccccc3)c1)CCC2	-10.1%
COc1cc(CNCc2ccc(-n3nc(C)cc3C)nc2)cc(OC)c1	-5.72%
Cn1ccnc1-c1nc2cc(S(=O)(=O)N3CCCC3)ccc2n1C	-26.2%
CC(C)(C)c1noc(CN2CCCCC2Cn2cncn2)n1 (configuration not stated)	-0.0275%
CS(=O)(=O)N1CCN(C(=O)c2cncs2)CC(C(N)=O)C1 (configuration not stated)	-5.12%
Cc1ccc(-c2cn3c(n2)CO[C@@H](CNCc2nccn2C)C3)cc1	-5.86%
COCc1cc(N(C)Cc2cnccn2)nc(C(C)(C)C)n1	-12.2%
Cc1n[nH]c(C)c1NC(=O)CN1CCCC1c1noc(C(C)C)n1 (configuration not stated)	15.2%
CC(C)n1c(=O)nc2n1C(=O)N(c1ccc(Br)cc1)C2	-16.1%

Compound	cytotoxicity at 70.5 h
Cn1cc(N2CCC(NC(=O)c3c(F)cccc3Cl)C2=O)cn1 (configuration not stated)	-3.25%
CS(=O)(=O)N1CCC2(CC1)CN(CC1CC1)CC21CCNC1=O (configuration not stated)	-9.45%
CCN(CC)C(=O)C1CCN(c2ccc(Cl)cc2C#N)CC1	10.1%
CCn1cc(CN2CCC(c3ccncc3)CC2)cc1C#N	-5.65%
Clc1ccc(COCC2CCN(Cc3ccccn3)CC2)cc1	-0.416%
CC(=O)N1CCC(c2ccnc(Nc3ccc(C)cn3)n2)C1 (configuration not stated)	16%
CN(Cc1ccccc1)S(=O)(=O)N1C[C@H](C2CC2)[C@@H](N)C1	-1.23%
COCC1c2c(cnn2CC2CC2)CCN1Cc1ccc(C)o1 (configuration not stated)	-8.01%
CCOC(=O)NC(=O)CSC(C)c1ccccc1F (configuration not stated)	-14.4%
Cc1nc2ccnn2c(C)c1CCC(=O)N1CCN(C2CC2)CC1	15.8%
Cc1ccccc1CCNC(=O)N1CCCC(c2nncn2C)C1 (configuration not stated)	-9.14%
c1ccc(-c2noc(CNC3CCc4ncnn4C3)n2)nc1 (configuration not stated)	-4.56%
CCc1ccc(C(=O)N2CCCC(c3noc(CC)n3)C2)o1 (configuration not stated)	-2.81%
Cc1nnc(N2CCC(CS(N)(=O)=O)CC2)c(C#N)c1C	-9.82%
CS(=O)(=O)N1CCCC(C(=O)N2CCOc3ccccc32)C1 (configuration not stated)	-14.4%
Cc1cc2nc(C(C)C)cc(N(C)CC3CCCN(CCO)C3)n2n1 (configuration not stated)	-2.47%
CC(C)NC(=O)Cc1cnc(-n2cccc2)s1	-24.2%
CCC(CC(=O)Nc1ccc2c(c1)CC(=O)N2)c1ccccc1 (configuration not stated)	-6.03%
CC(C)C(=O)N1CCC2(CC1)COCCN2Cc1ccc(F)cc1	-2.33%
